{"source": "ChEMBL document CHEMBL5528065", "about": "“Structure-Activity Relationship of a Pyrrole Based Series of PfPKG Inhibitors as Anti-Malarials” (J Med Chem, 2024)", "data": [{"test_system": "not listed separately", "test": "Intrinsic clearance in human liver microsomes in presence of NADPH incubated for 60 mins by LC-MS/MS analysis", "format": "ADME, Microsome", "settings": "read-out: CLH", "units": {"microsomal CLint": "µL/min/mg"}, "values": [{"smiles": "CC1CN(C)CC[C@H]1c1cc(-c2ccncc2)c(-c2ccc(F)cc2)[nH]1.Cl.Cl", "note": "(single isomer, unassigned)", "microsomal CLint": 24.1}, {"smiles": "C[C@@H]1CN(C)CC[C@@H]1c1cc(-c2ccncc2)c(-c2ccc(F)cc2)[nH]1.Cl.Cl", "microsomal CLint": 38.8}]}, {"test_system": "not listed separately", "test": "Apparent permeability in human Caco-2 cells incubated for 120 mins by LC-MS/MS analysis", "format": "ADME, cell-based", "settings": "not given", "units": {"Papp at 2 h": "×10⁻⁶ cm/s"}, "values": [{"smiles": "CC1CN(C)CC[C@H]1c1cc(-c2ccncc2)c(-c2ccc(F)cc2)[nH]1.Cl.Cl", "note": "(single isomer, unassigned)", "Papp at 2 h": 17}, {"smiles": "C[C@@H]1CN(C)CC[C@@H]1c1cc(-c2ccncc2)c(-c2ccc(F)cc2)[nH]1.Cl.Cl", "Papp at 2 h": 20.1}]}, {"test_system": "not listed separately", "test": "Protein binding in CD-1 mouse liver microsomes assessed as unbound fraction incubated for 17 hrs by LC-MS analysis", "format": "ADME, Microsome", "settings": "not given", "values": [{"smiles": "CC1CN(C)CC[C@H]1c1cc(-c2ccncc2)c(-c2ccc(F)cc2)[nH]1.Cl.Cl", "note": "(single isomer, unassigned)", "fraction unbound at 17 h": 0.587}, {"smiles": "C[C@@H]1CN(C)CC[C@@H]1c1cc(-c2ccncc2)c(-c2ccc(F)cc2)[nH]1.Cl.Cl", "fraction unbound at 17 h": 0.502}]}, {"test_system": "not listed separately", "test": "Efflux ratio of apparent permeability from basolateral to apical side over apical to basolateral side in human Caco-2 cells incubated for 120 mins by LC-MS/MS analysis", "format": "ADME, cell-based", "settings": "not given", "values": [{"smiles": "CC1CN(C)CC[C@H]1c1cc(-c2ccncc2)c(-c2ccc(F)cc2)[nH]1.Cl.Cl", "note": "(single isomer, unassigned)", "efflux ratio at 2 h": 1.27}, {"smiles": "C[C@@H]1CN(C)CC[C@@H]1c1cc(-c2ccncc2)c(-c2ccc(F)cc2)[nH]1.Cl.Cl", "efflux ratio at 2 h": 1}]}, {"test_system": "not listed separately", "test": "Protein binding in C57BL/6 mouse plasma assessed as unbound fraction incubated for 22 hrs by LC-MS/MS analysis", "format": "ADME, cell-free", "settings": "not given", "values": [{"smiles": "CC1CN(C)CC[C@H]1c1cc(-c2ccncc2)c(-c2ccc(F)cc2)[nH]1.Cl.Cl", "note": "(single isomer, unassigned)", "fraction unbound at 22 h": 0.115}, {"smiles": "C[C@@H]1CN(C)CC[C@@H]1c1cc(-c2ccncc2)c(-c2ccc(F)cc2)[nH]1.Cl.Cl", "fraction unbound at 22 h": 0.155}]}, {"test_system": "Plasmodium falciparum", "test": "(§1) Antimalarial activity against drug-sensitive Plasmodium falciparum 3D7 infected in human erythrocytes assessed as reduction in parasitemia incubated for 72 hrs by SYBR green I and Mitotracker deep red dye based flow cytometric analysis", "format": "functional, organism-based", "settings": "not given", "units": {"EC50": "nM"}, "values": [{"smiles": "CC1CN(C)CC[C@H]1c1cc(-c2ccncc2)c(-c2ccc(F)cc2)[nH]1.Cl.Cl", "note": "(single isomer, unassigned)", "EC50": 170}]}, {"test_system": "Plasmodium falciparum", "test": "as §1", "format": "functional, organism-based", "settings": "Plasmodium falciparum, 3D7, 72 h", "units": {"EC50": "nM"}, "values": [{"smiles": "C[C@@H]1CN(C)CC[C@@H]1c1cc(-c2ccncc2)c(-c2ccc(F)cc2)[nH]1.Cl.Cl", "EC50": 50}]}, {"test_system": "not listed separately", "test": "Aqueous solubility of compound in PBS at pH 7.4 incubated for 90 mins by UV spectrophotometric analysis", "format": "physicochemical", "settings": "not given", "units": {"solubility at 1.5 h": "µM"}, "values": [{"smiles": "CC1CN(C)CC[C@H]1c1cc(-c2ccncc2)c(-c2ccc(F)cc2)[nH]1.Cl.Cl", "note": "(single isomer, unassigned)", "solubility at 1.5 h": 190}, {"smiles": "C[C@@H]1CN(C)CC[C@@H]1c1cc(-c2ccncc2)c(-c2ccc(F)cc2)[nH]1.Cl.Cl", "solubility at 1.5 h": 181}]}, {"target": "Cytochrome P450 2D6 (Homo sapiens, UniProt P10635)", "sequence (P10635 whole entry)": "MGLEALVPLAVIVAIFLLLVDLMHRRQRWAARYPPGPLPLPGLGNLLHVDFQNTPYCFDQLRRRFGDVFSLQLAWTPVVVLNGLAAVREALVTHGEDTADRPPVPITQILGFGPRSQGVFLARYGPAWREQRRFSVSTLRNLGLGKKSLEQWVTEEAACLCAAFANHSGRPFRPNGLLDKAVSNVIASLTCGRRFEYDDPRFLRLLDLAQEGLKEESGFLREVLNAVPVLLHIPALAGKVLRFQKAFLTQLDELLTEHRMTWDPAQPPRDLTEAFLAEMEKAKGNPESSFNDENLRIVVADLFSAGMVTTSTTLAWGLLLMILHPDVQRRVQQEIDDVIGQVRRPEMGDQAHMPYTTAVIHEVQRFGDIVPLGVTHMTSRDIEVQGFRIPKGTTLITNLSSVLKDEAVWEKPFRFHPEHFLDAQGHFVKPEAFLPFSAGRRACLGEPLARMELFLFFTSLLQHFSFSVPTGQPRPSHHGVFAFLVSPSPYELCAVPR", "test": "Inhibition of human CYP2D6 expressed in baculovirus infected insect cells using AMMC as substrate incubated for 40 mins in presence of NADPH by UPLC-MS analysis", "format": "ADME", "settings": "not given", "units": {"IC50": "nM"}, "values": [{"smiles": "CC1CN(C)CC[C@H]1c1cc(-c2ccncc2)c(-c2ccc(F)cc2)[nH]1.Cl.Cl", "note": "(single isomer, unassigned)", "IC50": 5670}, {"smiles": "C[C@@H]1CN(C)CC[C@@H]1c1cc(-c2ccncc2)c(-c2ccc(F)cc2)[nH]1.Cl.Cl", "IC50": "> 10000"}]}, {"test_system": "not listed separately", "test": "Stability in human liver microsomes assessed as remaining compound in absence of NADPH incubated for 60 mins by LC-MS/MS analysis", "format": "ADME, Microsome", "settings": "read-out: Stability", "units": {"remaining at 1 h": "%"}, "values": [{"smiles": "CC1CN(C)CC[C@H]1c1cc(-c2ccncc2)c(-c2ccc(F)cc2)[nH]1.Cl.Cl", "note": "(single isomer, unassigned)", "remaining at 1 h": 101}, {"smiles": "C[C@@H]1CN(C)CC[C@@H]1c1cc(-c2ccncc2)c(-c2ccc(F)cc2)[nH]1.Cl.Cl", "remaining at 1 h": 99}]}, {"test_system": "Plasmodium berghei", "test": "(§2) Antimalarial activity against Plasmodium berghei sporozoites expressing Luciferase infected in human HepG2 cells assessed as reduction in parasite growth incubated for 48 hrs by ONE-Glo luciferase assay", "format": "functional, organism-based", "settings": "not given", "units": {"EC50": "nM"}, "values": [{"smiles": "CC1CN(C)CC[C@H]1c1cc(-c2ccncc2)c(-c2ccc(F)cc2)[nH]1.Cl.Cl", "note": "(single isomer, unassigned)", "EC50": 350}]}, {"test_system": "Plasmodium berghei", "test": "as §2", "format": "functional, organism-based", "settings": "Plasmodium berghei, HepG2, 48 h", "units": {"EC50": "nM"}, "values": [{"smiles": "C[C@@H]1CN(C)CC[C@@H]1c1cc(-c2ccncc2)c(-c2ccc(F)cc2)[nH]1.Cl.Cl", "EC50": 70}]}, {"test_system": "not listed separately", "test": "Stability in CD-1 mouse liver microsomes assessed as remaining compound in absence of NADPH incubated for 60 mins by LC-MS/MS analysis", "format": "ADME, Microsome", "settings": "read-out: Stability", "units": {"remaining at 1 h": "%"}, "values": [{"smiles": "CC1CN(C)CC[C@H]1c1cc(-c2ccncc2)c(-c2ccc(F)cc2)[nH]1.Cl.Cl", "note": "(single isomer, unassigned)", "remaining at 1 h": 104}, {"smiles": "C[C@@H]1CN(C)CC[C@@H]1c1cc(-c2ccncc2)c(-c2ccc(F)cc2)[nH]1.Cl.Cl", "remaining at 1 h": 103}]}, {"target": "Cytochrome P450 3A4 (Homo sapiens, UniProt P08684)", "sequence (P08684 whole entry)": "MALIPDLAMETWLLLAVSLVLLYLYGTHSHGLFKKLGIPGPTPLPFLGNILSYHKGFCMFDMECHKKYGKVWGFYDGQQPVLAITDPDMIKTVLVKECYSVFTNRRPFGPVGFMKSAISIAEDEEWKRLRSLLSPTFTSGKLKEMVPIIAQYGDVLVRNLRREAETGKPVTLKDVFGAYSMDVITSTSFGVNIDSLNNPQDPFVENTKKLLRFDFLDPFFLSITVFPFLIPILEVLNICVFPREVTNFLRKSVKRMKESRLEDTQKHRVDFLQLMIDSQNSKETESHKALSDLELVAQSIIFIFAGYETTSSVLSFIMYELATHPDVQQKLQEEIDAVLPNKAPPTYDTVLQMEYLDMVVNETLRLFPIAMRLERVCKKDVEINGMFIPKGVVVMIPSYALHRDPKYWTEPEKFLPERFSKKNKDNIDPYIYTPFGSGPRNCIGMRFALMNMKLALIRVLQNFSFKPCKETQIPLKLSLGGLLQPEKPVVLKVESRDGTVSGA", "test": "Inhibition of human CYP3A4 expressed in baculovirus infected insect cells using midazolam as substrate incubated for 30 mins in presence of NADPH by UPLC-MS analysis", "format": "ADME", "settings": "not given", "units": {"IC50": "nM"}, "values": [{"smiles": "CC1CN(C)CC[C@H]1c1cc(-c2ccncc2)c(-c2ccc(F)cc2)[nH]1.Cl.Cl", "note": "(single isomer, unassigned)", "IC50": "> 10000"}, {"smiles": "C[C@@H]1CN(C)CC[C@@H]1c1cc(-c2ccncc2)c(-c2ccc(F)cc2)[nH]1.Cl.Cl", "IC50": "> 10000"}]}, {"test_system": "not listed separately", "test": "Intrinsic clearance in CD-1 mouse liver microsomes in presence of NADPH incubated for 60 mins by LC-MS/MS analysis", "format": "ADME, Microsome", "settings": "read-out: CLH", "units": {"microsomal CLint": "µL/min/mg"}, "values": [{"smiles": "CC1CN(C)CC[C@H]1c1cc(-c2ccncc2)c(-c2ccc(F)cc2)[nH]1.Cl.Cl", "note": "(single isomer, unassigned)", "microsomal CLint": 49.2}, {"smiles": "C[C@@H]1CN(C)CC[C@@H]1c1cc(-c2ccncc2)c(-c2ccc(F)cc2)[nH]1.Cl.Cl", "microsomal CLint": "< 23"}]}, {"target": "Voltage-gated inwardly rectifying potassium channel KCNH2 (Homo sapiens, UniProt Q12809)", "sequence (Q12809 whole entry)": "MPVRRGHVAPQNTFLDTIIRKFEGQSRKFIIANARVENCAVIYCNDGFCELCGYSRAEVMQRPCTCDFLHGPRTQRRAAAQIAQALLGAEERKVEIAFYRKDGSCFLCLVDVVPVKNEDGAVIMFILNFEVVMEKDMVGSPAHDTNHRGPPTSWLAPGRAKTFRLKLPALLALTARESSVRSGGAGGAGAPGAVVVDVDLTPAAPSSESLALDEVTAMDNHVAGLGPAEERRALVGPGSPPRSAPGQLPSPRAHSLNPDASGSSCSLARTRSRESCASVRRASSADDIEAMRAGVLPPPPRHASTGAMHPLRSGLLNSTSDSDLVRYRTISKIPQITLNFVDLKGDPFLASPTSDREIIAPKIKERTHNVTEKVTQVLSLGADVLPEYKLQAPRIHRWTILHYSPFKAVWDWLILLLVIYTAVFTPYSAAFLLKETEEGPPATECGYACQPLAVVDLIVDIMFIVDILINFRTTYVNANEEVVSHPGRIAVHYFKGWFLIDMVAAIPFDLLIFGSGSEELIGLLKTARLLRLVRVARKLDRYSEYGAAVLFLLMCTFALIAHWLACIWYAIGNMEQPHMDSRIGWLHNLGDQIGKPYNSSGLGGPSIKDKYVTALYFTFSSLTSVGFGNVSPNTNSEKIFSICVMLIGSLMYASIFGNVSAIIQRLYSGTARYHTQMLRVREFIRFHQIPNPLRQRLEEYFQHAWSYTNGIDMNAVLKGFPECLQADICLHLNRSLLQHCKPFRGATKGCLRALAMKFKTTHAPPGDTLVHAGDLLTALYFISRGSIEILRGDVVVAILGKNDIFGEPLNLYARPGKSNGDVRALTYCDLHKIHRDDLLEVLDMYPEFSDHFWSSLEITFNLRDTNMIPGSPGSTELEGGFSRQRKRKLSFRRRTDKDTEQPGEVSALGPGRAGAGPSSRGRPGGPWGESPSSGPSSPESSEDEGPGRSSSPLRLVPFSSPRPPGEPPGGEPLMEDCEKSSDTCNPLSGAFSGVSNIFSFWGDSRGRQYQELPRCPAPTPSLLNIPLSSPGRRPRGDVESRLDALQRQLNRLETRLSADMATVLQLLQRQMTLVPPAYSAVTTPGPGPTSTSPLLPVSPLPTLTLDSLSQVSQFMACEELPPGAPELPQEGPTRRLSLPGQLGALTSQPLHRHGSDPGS", "test": "Inhibition of hERG expressed in HEK293 cells incubated for 30 mins by FluxOR dye based fluorescence analysis", "format": "toxicity, cell-based", "settings": "not given", "units": {"IC50": "nM"}, "values": [{"smiles": "CC1CN(C)CC[C@H]1c1cc(-c2ccncc2)c(-c2ccc(F)cc2)[nH]1.Cl.Cl", "note": "(single isomer, unassigned)", "IC50": "> 10000"}, {"smiles": "C[C@@H]1CN(C)CC[C@@H]1c1cc(-c2ccncc2)c(-c2ccc(F)cc2)[nH]1.Cl.Cl", "IC50": "> 10000"}]}, {"test_system": "Plasmodium falciparum", "test": "(§3) Antimalarial activity against Plasmodium falciparum expressing PKG T618Q mutant infected in human erythrocytes assessed as reduction in parasitemia incubated for 72 hrs by SYBR green I and Mitotracker deep red dye based flow cytometric analysis", "format": "functional, organism-based", "settings": "not given", "units": {"EC50": "nM"}, "values": [{"smiles": "CC1CN(C)CC[C@H]1c1cc(-c2ccncc2)c(-c2ccc(F)cc2)[nH]1.Cl.Cl", "note": "(single isomer, unassigned)", "EC50": 900}]}, {"test_system": "Plasmodium falciparum", "test": "as §3", "format": "functional, organism-based", "settings": "Plasmodium falciparum, 72 h", "units": {"EC50": "nM"}, "values": [{"smiles": "C[C@@H]1CN(C)CC[C@@H]1c1cc(-c2ccncc2)c(-c2ccc(F)cc2)[nH]1.Cl.Cl", "EC50": 760}]}, {"test_system": "not listed separately", "test": "Half life in human liver microsomes in presence of NADPH incubated for 60 mins by LC-MS/MS analysis", "format": "ADME, Microsome", "settings": "not given", "units": {"half-life": "min"}, "values": [{"smiles": "CC1CN(C)CC[C@H]1c1cc(-c2ccncc2)c(-c2ccc(F)cc2)[nH]1.Cl.Cl", "note": "(single isomer, unassigned)", "half-life": 57.5}, {"smiles": "C[C@@H]1CN(C)CC[C@@H]1c1cc(-c2ccncc2)c(-c2ccc(F)cc2)[nH]1.Cl.Cl", "half-life": 35.7}]}, {"test_system": "not listed separately", "test": "Half life in CD-1 mouse liver microsomes in presence of NADPH incubated for 60 mins by LC-MS/MS analysis", "format": "ADME, Microsome", "settings": "not given", "units": {"half-life": "min"}, "values": [{"smiles": "CC1CN(C)CC[C@H]1c1cc(-c2ccncc2)c(-c2ccc(F)cc2)[nH]1.Cl.Cl", "note": "(single isomer, unassigned)", "half-life": 28.2}, {"smiles": "C[C@@H]1CN(C)CC[C@@H]1c1cc(-c2ccncc2)c(-c2ccc(F)cc2)[nH]1.Cl.Cl", "half-life": "> 60"}]}, {"target": "Cytochrome P450 2C9 (Homo sapiens, UniProt P11712)", "sequence (P11712 whole entry)": "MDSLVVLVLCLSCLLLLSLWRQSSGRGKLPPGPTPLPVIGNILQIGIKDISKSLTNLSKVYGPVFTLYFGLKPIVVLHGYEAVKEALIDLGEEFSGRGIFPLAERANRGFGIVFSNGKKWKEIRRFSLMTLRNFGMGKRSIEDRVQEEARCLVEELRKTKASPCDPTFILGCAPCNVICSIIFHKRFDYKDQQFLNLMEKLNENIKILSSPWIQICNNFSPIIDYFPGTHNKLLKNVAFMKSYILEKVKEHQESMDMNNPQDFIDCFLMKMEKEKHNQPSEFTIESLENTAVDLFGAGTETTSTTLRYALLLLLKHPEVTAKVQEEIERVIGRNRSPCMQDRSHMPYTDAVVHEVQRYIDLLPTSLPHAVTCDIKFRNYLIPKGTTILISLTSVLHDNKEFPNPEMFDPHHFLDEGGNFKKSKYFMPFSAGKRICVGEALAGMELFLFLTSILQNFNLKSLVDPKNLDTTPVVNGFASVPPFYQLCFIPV", "test": "Inhibition of human CYP2C9 expressed in baculovirus infected insect cells using MFC as substrate incubated for 30 mins in presence of NADPH by UPLC-MS analysis", "format": "ADME", "settings": "not given", "units": {"IC50": "nM"}, "values": [{"smiles": "CC1CN(C)CC[C@H]1c1cc(-c2ccncc2)c(-c2ccc(F)cc2)[nH]1.Cl.Cl", "note": "(single isomer, unassigned)", "IC50": "> 10000"}, {"smiles": "C[C@@H]1CN(C)CC[C@@H]1c1cc(-c2ccncc2)c(-c2ccc(F)cc2)[nH]1.Cl.Cl", "IC50": "> 10000"}]}, {"test_system": "not listed separately", "test": "Inhibition of recombinant Plasmodium falciparum PKG using FAM-PKA peptide as fluorescent substrate preincubated for 15 mins followed by substrate addition measured after 1 hr by fluorescence polarization based IMAP assay", "settings": "not given", "units": {"IC50": "nM"}, "values": [{"smiles": "CC1CN(C)CC[C@H]1c1cc(-c2ccncc2)c(-c2ccc(F)cc2)[nH]1.Cl.Cl", "note": "(single isomer, unassigned)", "IC50": 14, "pIC50": 7.85}, {"smiles": "C[C@@H]1CN(C)CC[C@@H]1c1cc(-c2ccncc2)c(-c2ccc(F)cc2)[nH]1.Cl.Cl", "IC50": 13, "pIC50": 7.89}]}, {"species_on_record": "Homo sapiens", "test": "Inhibition of human PKG using FAM-IP3R peptide as fluorescent substrate at 10 uM preincubated for 15 mins followed by substrate addition measured after 1 hr by fluorescence polarization based IMAP assay relative to control", "settings": "time 75.0 min", "units": {"inhibition": "%"}, "values": [{"smiles": "CC1CN(C)CC[C@H]1c1cc(-c2ccncc2)c(-c2ccc(F)cc2)[nH]1.Cl.Cl", "note": "(single isomer, unassigned)", "inhibition": 0.4}, {"smiles": "C[C@@H]1CN(C)CC[C@@H]1c1cc(-c2ccncc2)c(-c2ccc(F)cc2)[nH]1.Cl.Cl", "inhibition": -0.3}]}]}
